In US6677276B1, “Herbicides for tolerant or resistant oil seed rape cultures” (Aventis CropScience GmbH, priority 1998, dated 2004):
Structures can show the parent of a compound that is named as a salt.

Tests used:
[1] = test system: Cirsium arvense; experiment: Field trial, herbicidal action (Table 5); type: in vivo; details: application in the 4-leaf stage, scoring 15 days after application
Protocol: (§1) Transgenic oil-seed rape plants with resistance to one or more herbicides (A) were grown together with typical weed plants in the open in 2×5 m plots under natural field conditions; alternatively, the weed population established naturally while the oil-seed rape plants grew. Treatment with the compositions according to the invention and, for control purposes, with separate application of the active ingredients of the components alone, was carried out under standard conditions with a plot sprayer at an application rate of 200-300 liters of water per hectare in parallel trials in accordance with the scheme of Table 1, i.e. pre-sowing/pre-emergence, post-sowing/-pre-emergence or post-emergence at the early, medium or late stage.
(§2) At 2, 4, 6 and 8 week intervals after application, the herbicidal activity of the active ingredients or active ingredient mixtures were scored visually by comparing the treated plots with untreated control plots. Damage and development of all aerial plant organs was recorded. The scoring was done using a percentage scale (100% activity=all plants dead; 50% activity=50% of the plants and green plant organs dead; 0% activity=no discernible effect=like control plot). The score values of in each case 4 plots were averaged.

[2] = test system: Chenopodium album; experiment: Field trial, herbicidal action (Table 5); type: in vivo; details: application in the 4-leaf stage, scoring 15 days after application
Protocol: as §1, §2

[3] = test system: Oil-seed rape LL; experiment: Field trial, crop plant tolerance; type: in vivo, Liberty-Link oil-seed rape; details: crop damage
Protocol: Transgenic oil-seed rape plants with resistance to one or more herbicides (A) were grown together with typical weed plants in the open in 2×5 m plots under natural field conditions; alternatively, the weed population established naturally while the oil-seed rape plants grew.
Damage and development of all aerial plant organs was recorded. […] The score values of in each case 4 plots were averaged.

[4] = test system: Matricaria chamomita; experiment: Field trial, herbicidal action (Table 4); type: in vivo; details: post-emergence application in the 4-leaf stage, scoring 28 days after post-emergence application
Protocol: as §1, §2

[5] = test system: Datura stramonium; experiment: Oil-seed rape field trial, herbicidal action (Table 2); type: in vivo; details: application in the 5-leaf stage, scoring 3 weeks after application
Protocol: as §1
[…] Damage and development of all aerial plant organs was recorded. The scoring was done using a percentage scale (100% activity=all plants dead; 50% activity=50% of the plants and green plant organs dead; 0% activity=no discernible effect=like control plot). The score values of in each case 4 plots were averaged.

[6] = test system: Galium aparine; experiment: Oil-seed rape field trial, herbicidal action (Table 3); type: in vivo; details: application in the 4-5 leaf stage, scoring 36 days after application
Protocol: as §1, §2

CP(=O)(O)CCC(N)C(=O)O (stereo not shown) [(A1.2), glufosinate monoammonium salt]
Herbicidal action (%) against Cirsium arvense ([1]; 230 g of A.S./ha): 85% | Herbicidal action (%) against Cirsium arvense ([1]; 350 g of A.S./ha): 97% | Herbicidal action (%) against Chenopodium album ([2]; 230 g of A.S./ha): 90% | Oil-seed rape LL ([3]; 125 g of A.S./ha, 4-5 leaf stage, scoring 36 days after application): 0% | Oil-seed rape LL ([3]; 230 g of A.S./ha, 4-leaf stage, scoring 15 days after application): 0% | Oil-seed rape LL ([3]; 250 g of A.S./ha, 4-5 leaf stage, scoring 36 days after application): 0% | Oil-seed rape LL ([3]; 350 g of A.S./ha, 4-leaf stage, scoring 15 days after application): 0% | Oil-seed rape LL ([3]; 500 g of A.S./ha, 4-5 leaf stage, scoring 36 days after application): 3% | Herbicidal action % against Matricaria chamomita ([4]; 125 g of A.S./ha): 10% | Herbicidal action % against Matricaria chamomita ([4]; 250 g of A.S./ha): 35% | Herbicidal action % against Matricaria chamomita ([4]; 500 g of A.S./ha): 65% | Herbicidal action (%) against Datura stramonium ([5]; 600 g of A.S./ha): 90% | Herbicidal action (%) against Galium aparine ([6]; 125 g of A.S./ha): 15% | Herbicidal action (%) against Galium aparine ([6]; 250 g of A.S./ha): 41% | Herbicidal action (%) against Galium aparine ([6]; 500 g of A.S./ha): 63%

Cc1cccc(C)c1N(Cn1cccn1)C(=O)CCl [(B1.1), 2-chloro-N-(2,6-dimethylphenyl)-N-(1H-pyrazol-1-ylmethyl)acetanilide]
Herbicidal action (%) against Datura stramonium ([5]; 600 g of A.S./ha): 40% | Herbicidal action (%) against Datura stramonium ([5]; 1200 g of A.S./ha): 93%

Cc1cnc2c(C(=O)O)c(Cl)ccc2c1 [(B2.1), 7-chloro-3-methylquinoline-8-carboxylic acid]
Herbicidal action % against Matricaria chamomita ([4]; 300 g of A.S./ha): 50%

O=C(O)c1nc(Cl)ccc1Cl [(B2.2), 3,6-dichloropyridine-2-carboxylic acid]
Herbicidal action (%) against Cirsium arvense ([1]; 90 g of A.S./ha): 85% | Herbicidal action (%) against Chenopodium album ([2]; 90 g of A.S./ha): 50% | Oil-seed rape LL ([3]; 90 g of A.S./ha, 4-leaf stage, scoring 15 days after application): 0%

CCCCCCCCSC(=O)Oc1cc(Cl)nnc1-c1ccccc1 [(B2.3), O-(6-chloro-3-phenylpyridazin-4-yl) S-octyl thiocarbonate]
Herbicidal action % against Matricaria chamomita ([4]; 600 g of A.S./ha): 60%

CCOc1nc(NC)nc(NC(=O)NS(=O)(=O)c2ccccc2C(=O)OC)n1 [(B2.4), methyl 2-{N-[N-(4-ethyox-6-methylamino-1,3,5-triazin-2-yl)aminocarbonyl]aminosulfonyl}benzoate]
Herbicidal action (%) against Cirsium arvense ([1]; 15 g of A.S./ha): 0% | Herbicidal action (%) against Chenopodium album ([2]; 15 g of A.S./ha): 30% | Oil-seed rape LL ([3]; 15 g of A.S./ha, 4-leaf stage, scoring 15 days after application): 0%
